Holding throughout (assay): ≥ marks a high value that may be exact or a test limit, other limits are often not marked, values filed in µg/mL are converted to µM
For assay [1], the system named is Acinetobacter baumannii ATCC 19606.
The test system of assay [2] is Candida albicans ATCC 90028.
Assay [3] deals with Cryptococcus neoformans ATCC 208821.
Assay [4] concerns Escherichia coli ATCC 25922.
For assay [5], the system named is Klebsiella pneumoniae ATCC 700603.
Assay [6] relates to Pseudomonas aeruginosa ATCC 27853.
The subject of assay [7] is Staphylococcus aureus ATCC 43300.
Assay [8] concerns Staphylococcus aureus SH1000.
The next assay relates to Escherichia coli K-12.
The test system of assay [9] is Pseudomonas aeruginosa PA214.
Assay [10] deals with Pseudomonas aeruginosa PA330.
The subject of assay [11] is Pseudomonas aeruginosa PAO1.
Another assay deals with Escherichia coli UB1005.
The test system of assay [12] is Pseudomonas aeruginosa H187.
Assay [13] relates to Bacillus amyloliquefaciens ATCC 23842.
Assay [14] deals with Bacillus cereus ATCC 14579.
Assay [15] has as its system Bacillus licheniformis ATCC 14580.
The subject of assay [16] is Bacillus subtilis ATCC 6051.
Assay [17] deals with Enterococcus faecalis 1F-1.
Assay [18] deals with Enterococcus faecium 5F-10.
Assay [19] has as its system Proteus mirabilis ATCC 35659.
Assay [20] relates to Salmonella enterica ATCC H9812.
In assay [21] the test system is Staphylococcus aureus ATCC 29213.
The test system of assay [22] is Bacillus cereus CMCC 6303.
For assay [23], the system named is Bacillus subtilis KCTC 3068.
Assay [24] has as its system Cronobacter sakazakii ATCC 29544.
In assay [25] the test system is Escherichia coli KCTC 1682.
Assay [26] deals with Listeria monocytogenes CMCC 54004.
Assay [27] has as its system Pseudomonas aeruginosa KCTC 1637.
The subject of assay [28] is Salmonella enterica subsp. enterica CMCC 47020.
In assay [29] the test system is Salmonella enterica subsp. enterica serovar Pullorum C79-13.
In assay [30] the test system is Salmonella enterica subsp. enterica serovar Typhi CMCC 50071.
Assay [31] deals with Salmonella enterica subsp. enterica serovar Typhimurium ATCC 14028.
For assay [32], the system named is Salmonella enterica subsp. enterica serovar Typhimurium C77-31.
In assay [33] the test system is Salmonella typhimurium KCTC 1926.
The test system of assay [34] is Staphylococcus aureus ATCC 25923.
Assay [35] deals with Staphylococcus aureus CMCC 26074.
For assay [36], the system named is Staphylococcus aureus KCTC 1621.
Assay [37] deals with Staphylococcus epidermidis KCTC 1917.
The subject of assay [38] is Escherichia coli DH5alpha.

SMILES strings stand for the structures. Values after ≈ are worked out from the molar mass of the structure shown. Some results are limits rather than exact numbers.

As a reminder, the MIC is the lowest concentration found to suppress growth. Low values mean inhibition by little substance, high ones a need for much substance.

With `CC(C)C[C@H](NC(=O)CN)C(=O)N[C@@H](Cc1ccccc1)C(=O)N[C@@H](CCCCN)C(=O)N[C@@H](CC(C)C)C(=O)N[C@@H](CC(C)C)C(=O)N[C@@H](CCCCN)C(=O)N[C@@H](CCCCN)C(=O)N[C@@H](CC(C)C)C(=O)N[C@@H](CC(C)C)C(=O)N[C@@H](CCCCN)C(=O)N[C@@H](CC(C)C)C(=O)N[C@@H](CC(C)C)C(=O)N[C@@H](CCCCN)C(N)=O` [GLFKLLKKLLKLLK], the minimal inhibitory concentration (MIC) in assay [1] is more than 20 µM; in assay [2], 20 µM (≈ 33.1 µg/mL); in assay [3], 20 µM (≈ 33.1 µg/mL); in assay [4] it was more than 20 µM; in assay [5] it was more than 20 µM; in assay [6], more than 20 µM. For the same molecule, the results for the minimum inhibitory concentration (MIC) in [7] and in assay [8] were more than 20 µM and not below 33 µM, respectively.

With `C[C@H](NC(=O)[C@H](C)NC(=O)[C@H](CCCCN)NC(=O)[C@H](Cc1ccccc1)NC(=O)[C@H](C)NC(=O)[C@H](CCCCN)NC(=O)[C@H](C)NC(=O)[C@H](Cc1c[nH]c2ccccc12)NC(=O)[C@H](C)NC(=O)[C@H](CCCCN)NC(=O)[C@H](C)NC(=O)[C@H](Cc1ccccc1)NC(=O)[C@H](C)NC(=O)[C@H](CCCCN)NC(=O)[C@H](C)NC(=O)[C@H](CCCCN)NC(=O)[C@@H](N)CCCCN)C(N)=O` [KKAKAFAKAWAKAFKAA], the MIC is 12.5 µM (≈ 22.9 µg/mL) against Escherichia coli K-12, not below 50 µM in assay [9], not below 50 µM in assay [10] and 25 µM (≈ 45.9 µg/mL) in [11].

As to `CC(C)C[C@H](NC(=O)[C@H](C)NC(=O)[C@H](CCCCN)NC(=O)[C@H](Cc1ccccc1)NC(=O)[C@H](CC(C)C)NC(=O)[C@H](CCCCN)NC(=O)[C@H](C)NC(=O)[C@H](Cc1c[nH]c2ccccc12)NC(=O)[C@H](CC(C)C)NC(=O)[C@H](CCCCN)NC(=O)[C@H](CC(C)C)NC(=O)[C@H](Cc1ccccc1)NC(=O)[C@H](C)NC(=O)[C@H](C)NC(=O)[C@H](CCCCN)NC(=O)[C@H](CCCCN)NC(=O)[C@@H](N)CCCCN)C(N)=O` [KKKAAFLKLWAKLFKAL], the MIC against Escherichia coli K-12 came out at 3.1 µM (≈ 6.21 µg/mL); in [9], 3.1 µM (≈ 6.21 µg/mL); in assay [10], 6.3 µM (≈ 12.6 µg/mL); in [11], 3.1 µM (≈ 6.21 µg/mL).

For the molecule `CC[C@H](C)[C@H](NC(=O)[C@H](Cc1ccccc1)NC(=O)[C@H](CCCCN)NC(=O)[C@H](CCCCN)NC(=O)[C@H](Cc1c[nH]c2ccccc12)NC(=O)[C@@H](N)CCCCN)C(=O)N[C@@H](CCCCN)C(=O)N[C@@H](CCC(=O)O)C(=O)N[C@@H](CC(C)C)C(=O)N[C@@H](CCC(N)=O)C(=O)N[C@@H](CCCCN)C(=O)N[C@H](C(=O)N[C@@H](CC(C)C)C(=O)N[C@@H](C)C(=O)N1CCC[C@H]1C(=O)NCC(=O)NCC(=O)N[C@@H](CC(C)C)C(=O)N[C@@H](CC(C)C)C(=O)N[C@@H](CO)C(=O)N[C@@H](CC(N)=O)C(=O)N[C@H](C(=O)N[C@H](C(=O)N[C@H](C(=O)N[C@@H](CO)C(=O)N[C@@H](CC(C)C)C(=O)O)[C@@H](C)O)C(C)C)[C@@H](C)CC)C(C)C` [KWKKFIKELQKVLAPGGLLSNIVTSL], the MIC against Escherichia coli UB1005 turned out to be 1.72 µM (≈ 5 µg/mL); in assay [12], 3.43 µM (≈ 10 µg/mL).

Consider `CC(C)C[C@H](NC(=O)[C@@H](N)CC(C)C)C(=O)N[C@@H](CO)C(=O)N[C@@H](CCCN=C(N)N)C(=O)N[C@H](C(=O)O)C(C)C` [LLSRV], for which the MIC in assay [13], in [14], in [15], in assay [16], in [17] and in assay [18] was not below 218 µM in each case. Besides, the minimal inhibitory concentration (MIC) is more than 218 µM in assay [4]; not below 218 µM in assay [19]; more than 218 µM in assay [11]; not below 218 µM in assay [20]; more than 218 µM in [21].

In the case of `CC[C@H](C)[C@@H]1NC(=O)[C@H](CCCN=C(N)N)NC(=O)[C@@H](NC(=O)[C@H](CC(C)C)NC(=O)[C@@H](N)CCCN=C(N)N)CSSC[C@@H](C(=O)N[C@@H](CCCN=C(N)N)C(N)=O)NC(=O)[C@H](C(C)C)NC(=O)[C@H](CCCN=C(N)N)NC(=O)[C@H]([C@@H](C)CC)NC(=O)[C@H](C(C)C)NC(=O)[C@H](C(C)C)NC1=O` [RLCRIVVIRVCR], the minimal inhibitory concentration (MIC) in assay [22] is not below 64 µM; in assay [23], 4.21 µM (≈ 6.24 µg/mL); in assay [24] it was not below 256 µM; in assay [25], 8.41 µM (≈ 12.5 µg/mL); against Escherichia coli UB1005, not below 128 µM; in assay [26], not below 128 µM. For the same molecule, the minimum inhibitory concentration (MIC) in assay [27] is 16.8 µM (≈ 25 µg/mL); in [28], not below 128 µM; in [29], not below 256 µM; in [30], not below 64 µM; in assay [31], 128 µM (≈ 190 µg/mL); in [32] it was not below 256 µM. In addition, the MIC in [33] is 4.21 µM (≈ 6.24 µg/mL); in assay [34], more than 256 µM; in [35], not below 256 µM; in assay [36], 4.21 µM (≈ 6.24 µg/mL); in [37], 4.21 µM (≈ 6.24 µg/mL).

In the case of `CC[C@H](C)[C@H](NC(=O)[C@H](C)NC(=O)[C@H](CCCCN)NC(=O)[C@@H](NC(=O)[C@H](CC(C)C)NC(=O)[C@H](CCCCN)NC(=O)[C@H](CCCCN)NC(=O)[C@@H](NC(=O)CNC(=O)[C@H](C)NC(=O)[C@H](Cc1ccccc1)NC(=O)[C@H](Cc1ccc(O)cc1)NC(=O)[C@@H]1CCCN1C(=O)[C@H](CC(=O)O)NC(=O)[C@@H](N)Cc1c[nH]c2ccccc12)C(C)C)[C@@H](C)O)C(=O)N[C@@H](CC(C)C)C(=O)N[C@@H](C)C(=O)N[C@H](C(=O)N[C@@H](CCCN=C(N)N)C(=O)N[C@@H](C)C(N)=O)C(C)C` [WDPYFAGVKKLTKAILAVRA], the MIC in [38] and in [8] was not below 50 µM in each case.

The values above are taken from DBAASP.
